Data as given in patent publication US6136813A, “Pharmaceutical treatment” (Beecham plc, priority 1989, dated 2000).
Where two headings read alike, the source gives them in different places.

Experiment: Blood levels of penciclovir in Pekin ducks after oral dosing with penciclovir or famciclovir
Format: in vivo
Settings: duck; for AUC at 6 h: 0-6 hr; for concentration at 0.25 h: 15 min; for concentration at 32 min / concentration at 0.5 h: 30 min; for concentration at 32 min: sample collected at 32 min; for concentration at 1 h / concentration at 65 min: 60 min; for concentration at 2 h: 120 min; for concentration at 4 h: 240 min; for concentration at 6 h: 360 min; for concentration at 65 min: sample collected at 65 min
[1] = 5 mg/kg, oral famciclovir 5 mg/kg, Duck No. 117
[2] = 5 mg/kg, oral famciclovir 5 mg/kg, Duck No. 154
[3] = 25 mg/kg, oral famciclovir 25 mg/kg, Duck No. 111
[4] = 25 mg/kg, oral famciclovir 25 mg/kg, Duck No. 153
[5] = 20 mg/kg, oral penciclovir 20 mg/kg, Duck No. 139
[6] = 20 mg/kg, oral penciclovir 20 mg/kg, Duck No. 169
[7] = 100 mg/kg, oral penciclovir 100 mg/kg, Duck No. 142
[8] = 100 mg/kg, oral penciclovir 100 mg/kg, Duck No. 163

## CC(=O)OCC(CCn1cnc2cnc(N)nc21)COC(C)=O [famciclovir, 9-(4-acetoxy-3-acetoxymethylbut-1-yl)-2-aminopurine]
5 mg/kg, oral famciclovir 5 mg/kg, Duck No. 117, read-out: AUC (area under the 0-6 hr. concentration/time curve) of penciclovir in blood
  AUC at 6 h: 15 µM·h
5 mg/kg, oral famciclovir 5 mg/kg, Duck No. 154, read-out: AUC (area under the 0-6 hr. concentration/time curve) of penciclovir in blood
  AUC at 6 h: 12 µM·h
[1]
  concentration at 0.25 h: 8.7 µM
  concentration at 32 min: 8.4 µM
  concentration at 1 h: 7.5 µM
  concentration at 2 h: 2 µM
  concentration at 4 h: ~0.5 µM
[2]
  concentration at 0.25 h: 5.1 µM
  concentration at 32 min: 3.9 µM
  concentration at 1 h: 3.5 µM
  concentration at 2 h: 2 µM
  concentration at 4 h: 1.4 µM
  concentration at 6 h: 1 µM
25 mg/kg, oral famciclovir 25 mg/kg, Duck No. 111, read-out: AUC (area under the 0-6 hr. concentration/time curve) of penciclovir in blood
  AUC at 6 h: 126 µM·h
25 mg/kg, oral famciclovir 25 mg/kg, Duck No. 153, read-out: AUC (area under the 0-6 hr. concentration/time curve) of penciclovir in blood
  AUC at 6 h: 90 µM·h
[3]
  concentration at 0.25 h: 22 µM
  concentration at 0.5 h: 31 µM
  concentration at 1 h: 34 µM
  concentration at 2 h: 33 µM
  concentration at 4 h: 14 µM
  concentration at 6 h: 6.1 µM
[4]
  concentration at 0.25 h: 18 µM
  concentration at 32 min: 20 µM
  concentration at 1 h: 25 µM
  concentration at 2 h: 20 µM
  concentration at 4 h: 4.4 µM
  concentration at 6 h: ~0.5 µM

## Nc1nc2c(ncn2CCC(CO)CO)c(=O)[nH]1 [penciclovir]
20 mg/kg, oral penciclovir 20 mg/kg, Duck No. 139, read-out: AUC (area under the 0-6 hr. concentration/time curve) of penciclovir in blood
  AUC at 6 h: 55 µM·h
20 mg/kg, oral penciclovir 20 mg/kg, Duck No. 169, read-out: AUC (area under the 0-6 hr. concentration/time curve) of penciclovir in blood
  AUC at 6 h: 57 µM·h
[5]
  concentration at 0.25 h: 24 µM
  concentration at 0.5 h: 28 µM
  concentration at 65 min: 18 µM
  concentration at 2 h: 12 µM
  concentration at 4 h: 2.8 µM
  concentration at 6 h: ~0.5 µM
[6]
  concentration at 0.25 h: 41 µM
  concentration at 0.5 h: 30 µM
  concentration at 65 min: 19 µM
  concentration at 2 h: 10 µM
  concentration at 4 h: 2.6 µM
100 mg/kg, oral penciclovir 100 mg/kg, Duck No. 142, read-out: AUC (area under the 0-6 hr. concentration/time curve) of penciclovir in blood
  AUC at 6 h: 92 µM·h
100 mg/kg, oral penciclovir 100 mg/kg, Duck No. 163, read-out: AUC (area under the 0-6 hr. concentration/time curve) of penciclovir in blood
  AUC at 6 h: 95 µM·h
[7]
  concentration at 0.25 h: 43 µM
  concentration at 0.5 h: 44 µM
  concentration at 1 h: 40 µM
  concentration at 2 h: 18 µM
  concentration at 4 h: 3.6 µM
  concentration at 6 h: 1.1 µM
[8]
  concentration at 0.25 h: 42 µM
  concentration at 0.5 h: 38 µM
  concentration at 65 min: 44 µM
  concentration at 2 h: 21 µM
  concentration at 4 h: 2.7 µM
  concentration at 6 h: ~0.5 µM
